In general, refractive index refers to a measure of how strongly the sample bends light. One may read the viscosity as the internal friction of a fluid under shear. What is called mass density is the mass of a sample divided by its volume.

± gives the expanded uncertainty stated by the source.

The nature of one data set: refractive index (Na D-line) (dimensionless). The note with it: 313.15 K; 101.33 kPa; Liquid; Standard Abbe refractometry.
Consider `C1CCOC1` [tetrahydrofuran], for which the refractive index is on record as 1.39659 ± 0.00037.

As for `OCCCO` [propan-1,3-diol], the refractive index was 1.43384 ± 0.00051.

Staying with this data set, now noted: 318.15 K; 101.33 kPa; Liquid; Standard Abbe refractometry.
With `CCOC(=O)C(C)O` (racemic) [DL-ethyl lactate], the refractive index is given as 1.40136 ± 0.00051.

In the case of `COCCOCCOCCOCCOC` [2,5,8,11,14-pentaoxapentadecane], the refractive index came to 1.42206 ± 0.00037.

As to `CC(O)CO` (centres undefined) [1,2-propanediol], the refractive index is listed as 1.4242 ± 0.00037.

On to `C1CCOC1` [tetrahydrofuran], for which the refractive index is 1.3938 ± 0.00037.

On to `OCCCO` [propan-1,3-diol], for which the refractive index came out at 1.43243 ± 0.00051.

Still in this data set, the particulars now being: 323.15 K; 101.33 kPa; Liquid; Standard Abbe refractometry.
For the compound `CCOC(=O)C(C)O` (racemic) [DL-ethyl lactate], the refractive index worked out at 1.39898 ± 0.00051.

As for `COCCOCCOCCOCCOC` [2,5,8,11,14-pentaoxapentadecane], the refractive index turned out to be 1.41985 ± 0.00037.

With `CC(O)CO` (centres undefined) [1,2-propanediol], the refractive index came out at 1.42246 ± 0.00037.

As to `C1CCOC1` [tetrahydrofuran], the refractive index was found to be 1.39098 ± 0.00037.

For the compound `OCCCO` [propan-1,3-diol], the refractive index was determined as 1.43101 ± 0.00051.

The nature of a further data set: xn = mol fraction of the nth substance listed. The note with it: 288.15 K; 101 kPa; Liquid; Concentric cylinders viscometry; x1 = 1.
As for `CCOC(=O)C(C)O` (stereo not drawn) [DL-ethyl lactate] + COCCOCCOCCOCCOC, the viscosity turned out to be 3.207 ± 0.062 mPa·s.

The same data set, now with this note: 288.15 K; 101 kPa; Liquid; Concentric cylinders viscometry; x2 = 0.
Regarding `OCCCO` [propan-1,3-diol] + CCOC(=O)C(C)O, the viscosity is recorded as 67.3 ± 1.3 mPa·s.

For `C1CCOC1` [tetrahydrofuran] + CCOC(=O)C(C)O, the viscosity is 0.5252 ± 0.01 mPa·s.

Turning to `CC(O)CO` (centres undefined) [1,2-propanediol] + CCOC(=O)C(C)O, the viscosity is 82.54 ± 1.5 mPa·s.

Staying with this data set, now noted: 288.15 K; 101 kPa; Liquid; Vibrating tube method; x1 = 1.
With `CCOC(=O)C(C)O` (stereo not drawn) [DL-ethyl lactate] + COCCOCCOCCOCCOC, the mass density was determined as 1039.28 ± 0.92 kg/m3.

Staying with this data set, now noted: 288.15 K; 101 kPa; Liquid; Vibrating tube method; x2 = 0.
Take `OCCCO` [propan-1,3-diol] + CCOC(=O)C(C)O: the mass density amounted to 1055.89 ± 0.95 kg/m3.

With `C1CCOC1` [tetrahydrofuran] + CCOC(=O)C(C)O, the mass density came to 893.293 ± 0.23 kg/m3.

In the case of `CC(O)CO` (centres undefined) [1,2-propanediol] + CCOC(=O)C(C)O, the mass density turned out to be 1039.87 ± 0.26 kg/m3.

The same data set, now with this note: 293.15 K; 101 kPa; Liquid; Concentric cylinders viscometry; x1 = 1.
With `CCOC(=O)C(C)O` (stereo not drawn) [DL-ethyl lactate] + COCCOCCOCCOCCOC, the viscosity is recorded as 2.75 ± 0.053 mPa·s.

The data set is the same for the next values; noted with them: 293.15 K; 101 kPa; Liquid; Concentric cylinders viscometry; x2 = 0.
In the case of `OCCCO` [propan-1,3-diol] + CCOC(=O)C(C)O, the viscosity turned out to be 52.52 ± 1 mPa·s.

In the case of `C1CCOC1` [tetrahydrofuran] + CCOC(=O)C(C)O, the viscosity came to 0.5048 ± 0.0098 mPa·s.

Take `CC(O)CO` (centres undefined) [1,2-propanediol] + CCOC(=O)C(C)O: the viscosity is 56.62 ± 0.97 mPa·s.

Staying with this data set, now noted: 293.15 K; 101 kPa; Liquid; Vibrating tube method; x1 = 1.
Consider `CCOC(=O)C(C)O` (stereo not drawn) [DL-ethyl lactate] + COCCOCCOCCOCCOC, for which the mass density stood at 1033.84 ± 0.91 kg/m3.

Still in this data set, the particulars now being: 293.15 K; 101 kPa; Liquid; Vibrating tube method; x2 = 0.
On to `OCCCO` [propan-1,3-diol] + CCOC(=O)C(C)O, for which the mass density came out at 1052.8 ± 0.95 kg/m3.

Consider `C1CCOC1` [tetrahydrofuran] + CCOC(=O)C(C)O, for which the mass density is 887.865 ± 0.23 kg/m3.

Regarding `CC(O)CO` (centres undefined) [1,2-propanediol] + CCOC(=O)C(C)O, the mass density is 1036.25 ± 0.26 kg/m3.

Staying with this data set, now noted: 298.15 K; 101 kPa; Liquid; Concentric cylinders viscometry; x1 = 1.
Turning to `CCOC(=O)C(C)O` (stereo not drawn) [DL-ethyl lactate] + COCCOCCOCCOCCOC, the viscosity is given as 2.39 ± 0.046 mPa·s.

Still in this data set, the particulars now being: 298.15 K; 101 kPa; Liquid; Concentric cylinders viscometry; x2 = 0.
On to `OCCCO` [propan-1,3-diol] + CCOC(=O)C(C)O, for which the viscosity is 41.51 ± 0.8 mPa·s.

With `C1CCOC1` [tetrahydrofuran] + CCOC(=O)C(C)O, the viscosity was found to be 0.4847 ± 0.0095 mPa·s.

Turning to `CC(O)CO` (centres undefined) [1,2-propanediol] + CCOC(=O)C(C)O, the viscosity was 44.03 ± 0.76 mPa·s.

Still in this data set, the particulars now being: 298.15 K; 101 kPa; Liquid; Vibrating tube method; x1 = 1.
On to `CCOC(=O)C(C)O` (stereo not drawn) [DL-ethyl lactate] + COCCOCCOCCOCCOC, for which the mass density is 1028.39 ± 0.9 kg/m3.

Still in this data set, the particulars now being: 298.15 K; 101 kPa; Liquid; Vibrating tube method; x2 = 0.
For the compound `OCCCO` [propan-1,3-diol] + CCOC(=O)C(C)O, the mass density came out at 1049.69 ± 0.94 kg/m3.

As to `C1CCOC1` [tetrahydrofuran] + CCOC(=O)C(C)O, the mass density is recorded as 882.403 ± 0.23 kg/m3.

`CC(O)CO` (centres undefined) [1,2-propanediol] + CCOC(=O)C(C)O: the mass density stood at 1032.59 ± 0.26 kg/m3.

The same data set, now with this note: 303.15 K; 101 kPa; Liquid; Concentric cylinders viscometry; x1 = 1.
As to `CCOC(=O)C(C)O` (stereo not drawn) [DL-ethyl lactate] + COCCOCCOCCOCCOC, the viscosity is listed as 2.097 ± 0.041 mPa·s.

The data set is the same for the next values; noted with them: 303.15 K; 101 kPa; Liquid; Concentric cylinders viscometry; x2 = 0.
For `OCCCO` [propan-1,3-diol] + CCOC(=O)C(C)O, the viscosity was 33.2 ± 0.64 mPa·s.

On to `C1CCOC1` [tetrahydrofuran] + CCOC(=O)C(C)O, for which the viscosity was found to be 0.464 ± 0.0092 mPa·s.

For the compound `CC(O)CO` (centres undefined) [1,2-propanediol] + CCOC(=O)C(C)O, the viscosity was found to be 33.16 ± 0.57 mPa·s.

The same data set, now with this note: 303.15 K; 101 kPa; Liquid; Vibrating tube method; x1 = 1.
As to `CCOC(=O)C(C)O` (stereo not drawn) [DL-ethyl lactate] + COCCOCCOCCOCCOC, the mass density was determined as 1022.92 ± 0.88 kg/m3.

The data set is the same for the next values; noted with them: 303.15 K; 101 kPa; Liquid; Vibrating tube method; x2 = 0.
As to `OCCCO` [propan-1,3-diol] + CCOC(=O)C(C)O, the mass density came out at 1046.57 ± 0.93 kg/m3.

In the case of `C1CCOC1` [tetrahydrofuran] + CCOC(=O)C(C)O, the mass density is 876.911 ± 0.23 kg/m3.

Take `CC(O)CO` (centres undefined) [1,2-propanediol] + CCOC(=O)C(C)O: the mass density turned out to be 1028.88 ± 0.25 kg/m3.

Still in this data set, the particulars now being: 308.15 K; 101 kPa; Liquid; Concentric cylinders viscometry; x1 = 1.
For the compound `CCOC(=O)C(C)O` (stereo not drawn) [DL-ethyl lactate] + COCCOCCOCCOCCOC, the viscosity worked out at 1.858 ± 0.036 mPa·s.

Still in this data set, the particulars now being: 308.15 K; 101 kPa; Liquid; Concentric cylinders viscometry; x2 = 0.
In the case of `OCCCO` [propan-1,3-diol] + CCOC(=O)C(C)O, the viscosity is on record as 26.86 ± 0.52 mPa·s.

`C1CCOC1` [tetrahydrofuran] + CCOC(=O)C(C)O: the viscosity stood at 0.4433 ± 0.0088 mPa·s.

On to `CC(O)CO` (centres undefined) [1,2-propanediol] + CCOC(=O)C(C)O, for which the viscosity is recorded as 25.45 ± 0.44 mPa·s.

Still in this data set, the particulars now being: 308.15 K; 101 kPa; Liquid; Vibrating tube method; x1 = 1.
Regarding `CCOC(=O)C(C)O` (stereo not drawn) [DL-ethyl lactate] + COCCOCCOCCOCCOC, the mass density worked out at 1017.42 ± 0.87 kg/m3.

The data set is the same for the next values; noted with them: 308.15 K; 101 kPa; Liquid; Vibrating tube method; x2 = 0.
Turning to `OCCCO` [propan-1,3-diol] + CCOC(=O)C(C)O, the mass density is given as 1043.43 ± 0.93 kg/m3.

As for `C1CCOC1` [tetrahydrofuran] + CCOC(=O)C(C)O, the mass density came to 871.384 ± 0.23 kg/m3.

Take `CC(O)CO` (centres undefined) [1,2-propanediol] + CCOC(=O)C(C)O: the mass density is recorded as 1025.14 ± 0.25 kg/m3.

Staying with this data set, now noted: 313.15 K; 101 kPa; Liquid; Concentric cylinders viscometry; x1 = 1.
For the compound `CCOC(=O)C(C)O` (stereo not drawn) [DL-ethyl lactate] + COCCOCCOCCOCCOC, the viscosity is on record as 1.658 ± 0.032 mPa·s.

Staying with this data set, now noted: 313.15 K; 101 kPa; Liquid; Concentric cylinders viscometry; x2 = 0.
As for `OCCCO` [propan-1,3-diol] + CCOC(=O)C(C)O, the viscosity is on record as 21.97 ± 0.42 mPa·s.
